What was measured:
[1] = tested on: LNCap tumor; experiment: Ex vivo activities of [44Sc]Sc-AAZTA.QS.PSMA with and without 2-PMPA blocking; format: in vivo, mice; settings: for Ex vivo activity kindneys: kidneys
Procedure: The radiotracer [^44Sc]Sc-AAZTA.QS.PSMA was further examined in vivo in three mice, each carrying an LNCap tumor. In addition blocking tests were carried out on one of the mice. […] The same applies to the kidneys.

[2] = Stability of [44Sc]Sc-AAZTA.QS.PSMA; format: in vitro ADME; settings: over a period of 24 hours
Procedure: Similar to DATA, the AAZTA chelator can also be labeled with radio nuclides such as ^44Sc and ^68Ga under mild conditions. In the instant example, the radioisotope ^44Sc is used and the properties of the radiotracer [^44Sc]Sc-AAZTA.QS.PSMA are investigated. The synthesis shown in FIG. 44 was readily carried out with high yield. […] The stability of [^44Sc]Sc-AAZTA.QS.PSMA exceeds 95% over a period of 24 hours (FIG. 46).

[3] = tested on: tumor; experiment: Ex vivo activities of 68Ga-DATA.QS.PSMA and 68Ga-PSMA-11; format: in vivo; settings: ± SD
Description: The results of ex vivo investigations (FIGS. 41-43) are in agreement with the in vivo observations.

[4] = tested on: tumor; experiment: In vivo PET comparison of DATA.QS.PSMA with PSMA-11 (MIP, time/activity curves)
Description: Furthermore, compounds of the type DATA.QS.PSMA were compared in vivo with PSMA-11 in the same animal model.

## O=C(O)CCC(NC(=O)NC(CCCCNc1c(NCCNC(=O)CCCCC2(N(CC(=O)O)CC(=O)O)CN(CC(=O)O)CCN(CC(=O)O)C2)c(=O)c1=O)C(=O)O)C(=O)O.[44Sc+3] (stereo not shown) [^44Sc.AAZTA.QS.KuE]
[1]; Block (+PMPA)
  Ex vivo activity LN: 0.39 % ID/g
  Ex vivo activity blood: 0.34 % ID/g
  Ex vivo activity bone: 0.10 % ID/g
  Ex vivo activity heart: 0.11 % ID/g
  Ex vivo activity kindneys: 7.97 % ID/g
  Ex vivo activity liver: 0.16 % ID/g
  Ex vivo activity lung: 0.06 % ID/g
  Ex vivo activity muscle: 0.05 % ID/g
  Ex vivo activity salivary glands: 0.11 % ID/g
  Ex vivo activity small intestine: 0.35 % ID/g
  Ex vivo activity spleen: 0.15 % ID/g
  Ex vivo activity tumor: 0.53 % ID/g
[1]; mouse (1), no blocking
  Ex vivo activity LN: 1.33 % ID/g
  Ex vivo activity blood: 0.96 % ID/g
  Ex vivo activity bone: 0.46 % ID/g
  Ex vivo activity heart: 0.41 % ID/g
  Ex vivo activity kindneys: 119.86 % ID/g
  Ex vivo activity liver: 0.42 % ID/g
  Ex vivo activity lung: 1.31 % ID/g
  Ex vivo activity muscle: 0.38 % ID/g
  Ex vivo activity salivary glands: 0.51 % ID/g
  Ex vivo activity small intestine: 0.62 % ID/g
  Ex vivo activity spleen: 6.19 % ID/g
  Ex vivo activity tumor: 14.73 % ID/g
[1]; mouse (2), no blocking
  Ex vivo activity LN: 0.38 % ID/g
  Ex vivo activity blood: 0.41 % ID/g
  Ex vivo activity bone: 0.29 % ID/g
  Ex vivo activity heart: 0.14 % ID/g
  Ex vivo activity kindneys: 42.76 % ID/g
  Ex vivo activity liver: 0.16 % ID/g
  Ex vivo activity lung: 0.59 % ID/g
  Ex vivo activity muscle: 0.13 % ID/g
  Ex vivo activity salivary glands: 0.18 % ID/g
  Ex vivo activity small intestine: 0.22 % ID/g
  Ex vivo activity spleen: 1.15 % ID/g
  Ex vivo activity tumor: 14.14 % ID/g
[2]
  stability: exceeds 95%

## CN(CC(=O)O)C1(CCCCC(=O)NCCNc2c(NCCCCC(NC(=O)NC(CCC(=O)O)C(=O)O)C(=O)O)c(=O)c2=O)CN(CC(=O)O)CCN(CC(=O)O)C1.[68Ga+3] (stereo not shown) [^68Ga.DATA.QS.PSMA]
[3]; LN
  Ex vivo activity LN: 0.35 ± 0.20 % ID/g
[3]; blood
  Ex vivo activity blood: 0.50 ± 0.19 % ID/g
[3]; bone
  Ex vivo activity bone: 0.15 ± 0.03 % ID/g
[3]; heart
  Ex vivo activity heart: 0.17 ± 0.06 % ID/g
[3]; kidney left
  Ex vivo activity kidney left: 6.59 ± 2.45 % ID/g
[3]; kidney right
  Ex vivo activity kidney right: 6.23 ± 2.39 % ID/g
[3]; liver
  Ex vivo activity liver: 0.21 ± 0.04 % ID/g
[3]; lung
  Ex vivo activity lung: 0.59 ± 0.27 % ID/g
[3]; muscle
  Ex vivo activity muscle: 0.09 ± 0.05 % ID/g
[3]; salivary glands
  Ex vivo activity salivary glands: 0.19 ± 0.07 % ID/g
[3]; small intestine
  Ex vivo activity small intestine: 0.31 ± 0.12 % ID/g
[3]; spleen
  Ex vivo activity spleen: 0.54 ± 0.22 % ID/g
[3]; tumor
  Ex vivo activity tumor: 4.65 ± 0.58 % ID/g
[4]; MIP images
  accumulation in the tumor: high accumulation
[4]; first hour, compared with [68Ga]-PSMA-11, time/activity curves
  excretion via the kidneys: significantly faster
